From PubChem BioAssay AID328 (DTP/NCI, 2004)
Values joined by “and” are separate entries in the source; they are usually repeats but may differ in a detail not shown here. Equal entries are not always repeated. Inconclusive results and toxic doses are left out.

Test system: BDF1 mice, P388 leukemia ip, median survival T/C
Experiment: NCI In Vivo Anticancer Drug Screen. Data for tumor model P388 Leukemia (intraperitoneal) in B6D2F1 (BDF1) mice
Conditions: endpoint: median survival time, higher = longer survival
How it was run: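 Mice carrying the transplantable tumour receive compound or vehicle. Survival is followed in each arm, and the treated measure is divided by the vehicle measure.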

[1] = dose: 6.25 mg/kg/injection, schedule: Q01DX009 (ip), vehicle: saline with Tween-80
[2] = dose: 50.0 mg/kg/injection, schedule: Q04DX003 (ip), vehicle: saline with Tween-80
[3] = dose: 50.0 mg/kg/injection, schedule: Q01DX009 (ip), vehicle: saline with Tween-80
[4] = dose: 100.0 mg/kg/injection, schedule: Q01DX009 (ip), vehicle: saline with Tween-80
[5] = dose: 200.0 mg/kg/injection, schedule: Q01DX009 (ip), vehicle: saline with Tween-80
[6] = dose: 100.0 mg/kg/injection, schedule: Q04DX003 (ip), vehicle: saline with Tween-80
[7] = dose: 200.0 mg/kg/injection, schedule: Q04DX003 (ip), vehicle: saline with Tween-80
[8] = dose: 100.0 mg/kg/injection, schedule: Q04DX003 (ip), vehicle: saline
[9] = dose: 200.0 mg/kg/injection, schedule: Q04DX003 (ip), vehicle: saline
[10] = dose: 400.0 mg/kg/injection, schedule: Q04DX003 (ip), vehicle: saline
[11] = dose: 150.0 mg/kg/injection, schedule: Q01DX009 (ip), vehicle: saline with Tween-80
[12] = dose: 400.0 mg/kg/injection, schedule: Q04DX003 (ip), vehicle: saline with Tween-80
[13] = dose: 25.0 mg/kg/injection, schedule: Q01DX009 (ip), vehicle: saline with Tween-80
[14] = dose: 400.0 mg/kg/injection, schedule: Q01DX009 (ip), vehicle: saline with Tween-80
[15] = dose: 100.0 mg/kg/injection, schedule: Q04DX003 (ip), vehicle: Klucel (hydroxypropylcellulose) (HPC)
[16] = dose: 200.0 mg/kg/injection, schedule: Q04DX003 (ip), vehicle: Klucel (hydroxypropylcellulose) (HPC)
[17] = dose: 400.0 mg/kg/injection, schedule: Q04DX003 (ip), vehicle: Klucel (hydroxypropylcellulose) (HPC)
[18] = dose: 0.78 mg/kg/injection, schedule: Q01DX009 (ip), vehicle: saline
[19] = dose: 6.25 mg/kg/injection, schedule: Q01DX009 (ip), vehicle: saline

For ClC1=NC(Cl)C(Cl)=N/C1=N\c1ncn[nH]1 (stereo unspecified), the T/C [1] was 110 % of control, the T/C (dose: 22.0 mg/kg/injection, schedule: Q04DX003 (ip), vehicle: saline with Tween-80) was 113 % of control and the T/C [2] was 118 % of control. The T/C (dose: 75.0 mg/kg/injection, schedule: Q04DX003 (ip), vehicle: saline with Tween-80) was 90 % of control.
N#CN=CN1CCC(O)(c2ccccc2)CC1 was tested, and the T/C [3] was 88 % of control, the T/C [4] was 88 % of control and the T/C [5] was 94 % of control.
With OC1c2cc(Cl)ccc2-c2c(Cl)cc(Cl)cc21 (stereo unspecified) the T/C [3] was 104 % of control, the T/C [4] was 100 % of control and the T/C [6] was 91 % of control. For the same compound, the T/C [5] was 108 % of control and the T/C [7] was 100 % of control.
With CC(=O)NNC(=O)c1ccncc1 the T/C [8] was 100 % of control, the T/C [9] was 118 % of control and the T/C [10] was 100 % of control.
C/C(=N\NC(=O)CC(=O)N/N=C(\C)c1ccccc1)c1ccccc1 was tested, and the T/C (dose: 75.0 mg/kg/injection, schedule: Q01DX009 (ip), vehicle: saline with Tween-80) was 91 % of control, the T/C [11] was 99 % of control and the T/C (dose: 300.0 mg/kg/injection, schedule: Q01DX009 (ip), vehicle: saline with Tween-80) was 90 % of control.
For NC(=S)c1ccc(N)nc1, the T/C [6] was 103 % of control, the T/C [7] was 110 % of control and the T/C [12] was 110 % of control.
For CN1C(=O)C(=O)c2ccccc21, the T/C [3] was 94 % of control, the T/C [4] was 97 % of control and the T/C [5] was 93 % of control.
CCOC(=O)C(=CNc1ccccc1OC)C(=O)OCC was tested, and the T/C (dose: 1.56 mg/kg/injection, schedule: Q01DX009 (ip), vehicle: saline with Tween-80) was 112 % of control, the T/C (dose: 3.12 mg/kg/injection, schedule: Q01DX009 (ip), vehicle: saline with Tween-80) was 104 % of control and the T/C [1] was 102 % of control. For the same compound, the T/C (dose: 12.5 mg/kg/injection, schedule: Q01DX009 (ip), vehicle: saline with Tween-80) was 102 % of control and 116 % of control, the T/C [13] was 98 % of control and 123 % of control and the T/C [3] was 100 % of control and 116 % of control and 121 % of control. The T/C [2] was 99 % of control, the T/C [4] was 102 % of control and 114 % of control and the T/C [6] was 96 % of control. The T/C [5] was 109 % of control, the T/C [7] was 96 % of control and the T/C [14] was 106 % of control. The T/C [12] was 96 % of control.
CN(N)c1cc(=O)n(C)c(=O)n1C was tested, and the T/C [8] was 110 % of control, the T/C [9] was 103 % of control and the T/C [10] was 101 % of control.
In the case of c1nnc(NCNc2nncs2)s1, the T/C (dose: 12.0 mg/kg/injection, schedule: Q04DX003 (ip), vehicle: saline) is reported as 100 % of control, the T/C (dose: 12.5 mg/kg/injection, schedule: Q01DX010 (ip), vehicle: saline) is reported as 204 % of control and the T/C (dose: 19.0 mg/kg/injection, schedule: Q04DX003 (ip), vehicle: saline) is reported as 118 % of control. The T/C (dose: 25.0 mg/kg/injection, schedule: Q01DX010 (ip), vehicle: saline) was 227 % of control, the T/C (dose: 29.0 mg/kg/injection, schedule: Q04DX003 (ip), vehicle: saline) was 186 % of control and the T/C (dose: 45.0 mg/kg/injection, schedule: Q04DX003 (ip), vehicle: saline) was 177 % of control. For the same compound, the T/C (dose: 50.0 mg/kg/injection, schedule: Q01DX009 (ip), vehicle: saline) was 100 % of control, the T/C (dose: 50.0 mg/kg/injection, schedule: Q01DX010 (ip), vehicle: saline) was 90 % of control and the T/C (dose: 50.0 mg/kg/injection, schedule: Q04DX003 (ip), vehicle: saline) was 190 % of control. For the same compound, the T/C (dose: 66.0 mg/kg/injection, schedule: Q04DX003 (ip), vehicle: saline) was 150 % of control and 195 % of control, the T/C (dose: 100.0 mg/kg/injection, schedule: Q01DX009 (ip), vehicle: saline) was 100 % of control and the T/C [8] was 227 % of control and 235 % of control and 195 % of control. For the same compound, the T/C (dose: 150.0 mg/kg/injection, schedule: Q04DX003 (ip), vehicle: saline) was 210 % of control and 213 % of control.
With CC(C)CCCCc1c[nH]c(=O)[nH]c1=O the T/C [6] was 100 % of control, the T/C [7] was 100 % of control and the T/C [12] was 100 % of control.
In the case of CC(=O)Oc1ccc(C2(c3ccc(OC(C)=O)cc3)C(=O)Nc3ccccc32)cc1, the T/C [15] is reported as 95 % of control, the T/C [16] is reported as 104 % of control and the T/C [17] is reported as 100 % of control.
In the case of CCOC(=S)SCC(=O)Nc1ccccc1, the T/C [13] is reported as 93 % of control, the T/C [3] is reported as 90 % of control and the T/C [4] is reported as 103 % of control.
With ClCc1cccc(CCl)c1 the T/C (dose: 50.0 mg/kg/injection, schedule: Q01DX009 (ip), vehicle: saline sonified) was 108 % of control, the T/C (dose: 100.0 mg/kg/injection, schedule: Q01DX009 (ip), vehicle: saline sonified) was 108 % of control and the T/C (dose: 200.0 mg/kg/injection, schedule: Q01DX009 (ip), vehicle: saline sonified) was 86 % of control.
In the case of COc1cc([N+](=O)[O-])c(Cl)cc1NS(=O)(=O)c1ccccc1, the T/C (dose: 67.0 mg/kg/injection, schedule: Q01DX009 (ip), vehicle: saline with Tween-80) is reported as 100 % of control and 108 % of control, the T/C [4] is reported as 100 % of control and 111 % of control and the T/C [6] is reported as 103 % of control. The T/C [11] was 100 % of control and 111 % of control, the T/C [5] was 120 % of control and the T/C [7] was 92 % of control. For the same compound, the T/C [14] was 105 % of control and the T/C [12] was 96 % of control.
For CCN(CC)CCCNc1ncnc2onc(-c3ccccc3)c12, the T/C (dose: 50.0 mg/kg/injection, schedule: Q01DX009 (ip), vehicle: other) was 107 % of control, the T/C (dose: 100.0 mg/kg/injection, schedule: Q01DX009 (ip), vehicle: other) was 105 % of control and the T/C (dose: 200.0 mg/kg/injection, schedule: Q01DX009 (ip), vehicle: other) was 96 % of control.
COC(=O)C(C#N)=N/C=C/C=C1/N(C)c2ccccc2C1(C)C was tested, and the T/C [3] was 96 % of control, the T/C [4] was 92 % of control and the T/C [5] was 99 % of control.
In the case of C1CCC2[N-]CC3CCCCC3[N-]CC3CCCCC3[N-]CC3CCCCC3[N-]CC2C1.[Cu] (stereo unspecified), the T/C (dose: 0.39 mg/kg/injection, schedule: Q01DX009 (ip), vehicle: saline) is reported as 107 % of control, the T/C [18] is reported as 113 % of control and the T/C (dose: 3.12 mg/kg/injection, schedule: Q01DX009 (ip), vehicle: saline) is reported as 166 % of control. For the same compound, the T/C [19] was 96 % of control.
For O=C1c2ccccc2C(=O)c2cc3cc(Cl)ccc3cc21, the T/C [15] was 90 % of control, the T/C [16] was 90 % of control and the T/C [17] was 90 % of control.
In the case of C=CC(C)(O)/C=C/C=C(\C)C(CC1OC1(C)C)OC(=O)/C(C)=C\C (stereo unspecified), the T/C [18] is reported as 106 % of control, the T/C (dose: 1.56 mg/kg/injection, schedule: Q01DX009 (ip), vehicle: saline) is reported as 95 % of control and the T/C (dose: 3.13 mg/kg/injection, schedule: Q01DX009 (ip), vehicle: saline) is reported as 95 % of control. For the same compound, the T/C [19] was 113 % of control.
With CCCCCCCCCCCCCCCCCCOc1cccc(C(F)(F)F)c1 the T/C (dose: 50.0 mg/kg/injection, schedule: Q01DX001 (ip), vehicle: saline with Tween-80) was 105 % of control, the T/C (dose: 100.0 mg/kg/injection, schedule: Q01DX001 (ip), vehicle: saline with Tween-80) was 100 % of control and the T/C (dose: 200.0 mg/kg/injection, schedule: Q01DX001 (ip), vehicle: saline with Tween-80) was 90 % of control.
For Cc1cccc(NC(=O)N(CCCl)N=O)c1, the T/C (dose: 0.4 mg/kg/injection, schedule: Q01DX009 (ip), vehicle: saline) was 157 % of control, the T/C (dose: 38.0 micrograms/kg/injection, schedule: Q04DX003 (ip), vehicle: saline) was 100 % of control and the T/C (dose: 75.0 micrograms/kg/injection, schedule: Q04DX003 (ip), vehicle: saline) was 109 % of control. The T/C (dose: 150.0 micrograms/kg/injection, schedule: Q04DX003 (ip), vehicle: saline) was 104 % of control and the T/C (dose: 300.0 micrograms/kg/injection, schedule: Q04DX003 (ip), vehicle: saline) was 109 % of control.
C/C=C/N=NNc1ccccc1OC was tested, and the T/C (dose: 25.0 mg/kg/injection, schedule: Q04DX003 (ip), vehicle: saline with Tween-80) was 113 % of control, the T/C [2] was 104 % of control and the T/C [6] was 104 % of control.
